Laboratory results published in US20240207454A1, “NEURO-BEHAVIORAL ASSAY FOR PHYSIOLOGICAL EVALUATION OF WATER-SOLUBLE ANESTHETICS” (Northeastern University, priority 2022, published 2024).
Read-outs that look alike come from different tables or passages of the source.

What was measured:
[1] = test system: Apteronotus leptorhynchus; test: Neuro-behavioral assay: effect on EOD frequency; type: in vivo; conditions: for EOD frequency lower than median baseline frequency immediately after return to isolation tank (range among fish): 2.5% urethane or 0.02% MS-222 immersion until fin and opercular movement ceased; for EOD frequency lower than median baseline frequency immediately after return to isolation tank (range among fish) / EOD frequency lower than median baseline frequency immediately after return to isolation tank (median) / Median EOD frequency change, 30-min interval before vs 15-min interval after start of anesthesia: Median: n=8 fish; for EOD frequency lower than median baseline frequency immediately after return to isolation tank (median): 2.5% urethane or 0.02% MS-222 immersion; for Recovery model parameter a (ratio EOD frequency vs baseline at t=0), estimate / Recovery model parameter b, estimate / Recovery model parameter c, estimate / Recovery model parameter d, estimate: robust nonlinear regression, Equation 1, 2.5% urethane or 0.02% MS-222; for Recovery model (Eq. 3) parameter a: normalized frequency
Text: For the assay, adult brown ghost knifefish (Apteronotus leptorhynchus; Gymnotiformes, Teleostei), with total lengths of approximately 12-15 cm, are used. The fish are imported from their natural habitat in South and Central America.
At least 1 week before using the assay for the first run, the fish is transferred from a community tank to an isolation tank (50 cm×30 cm×30 cm) equipped with aquarium thermostat heaters and air-driven corner filters. The fish is kept in aquarium water prepared by adding a mixture of inorganic salts (81 mmol/L MgSO4·7H2O; 107 mmol/L KCl; 12 mmol/L NaH2PO4·2H2O; 732 mmol/L CaSO4·2H2O) to deionized water until a water conductivity of approximately 150-300 μS/cm is reached. Water temperature, determined during the experiments every 10 min with a calibrated high-precision (accuracy+0.05° C.) digital thermometer, is kept in the range of 25.0-28.0° C. across all assays. Variation is limited to 1.0° C. in an individual assay. A 12:12 h light:dark photoperiod is maintained with a timer. The fish are fed red mosquito larvae daily, after the assay run on that day has been completed.
In each isolation tank, an opaque cylindrical plastic tube (length: 190 mm; inner diameter: 38 mm; outer diameter: 42 mm) provides shelter and is readily accepted by the fish, particularly during the light phase, when individuals of this nocturnal species spend most of the time in shelter places. A pair of stainless-steel electrodes is mounted on the inside of each tube (see section 4.1.2, ‘EOD recording,’ below).
Differential recording of the fish's EOD is done through the pair of stainless-steel electrodes built into the shelter tube (FIG. 1). […] This allows the fish's EOD to be recorded continuously without interruptions. At the same time, mesh size is chosen such that sustained water flow through the tube is ensured. A strip of stainless steel is placed in the tank to serve as a ground electrode.
The signal is AC amplified (gain: 30×; low-pass filter: none; high-pass filter: 200 Hz) and then digitized at a sampling rate of 50 kHz.
The sampled time-voltage data (ti, vi), i=1, . . . , N, are filtered in subsequent, 1-s-long windows using a bandpass filter with frequency band [0.8, 1.2]×f0, where f0 is the fundamental frequency determined from the power spectrum of the signal within the associated time window.
The filtered time series data (ti, Vi), i=1, . . . , N, are further processed to determine the EOD frequency at a higher time resolution. First, tuple j containing the indices of all instants where the filtered signal changes sign to a positive value is determined:
Then, tuple t^+ of time instances when the signal crosses the time axis upwards is calculated using interpolation:
Here M=|j| denotes the number of elements in j (the number of all crossings). Finally, time-frequency pairs (Tk, fk) are computed as
for k=1, . . . , M−m. Here m=10 is the number of averaged time periods used for EOD frequency calculation.
Since the EOD frequency of A. leptorhynchus is temperature dependent, all measured frequencies are adjusted to a reference temperature (arbitrarily chosen to be 26° C.) so that discharge frequencies at different water temperatures can be compared. This adjustment of a frequency f1 (in Hz) measured at a temperature T1 (in ° C.) to the reference temperature T2=26° C. is calculated as
where f2 is the expected frequency at T2 and Q10=1.56, as determined empirically.
The experimental design is outlined in FIG. 2. To determine the baseline EOD frequency, the fish's EOD was recorded for 30 min. Then, the fish was transferred into a glass beaker containing either 2.5% urethane (Acros Organics, New Jersey, USA) or 0.02% MS-222 (Western Chemical, Washington, USA), each dissolved in water from the fish's isolation tank. As a control, the fish was moved into an identical glass beaker containing aquarium water only. […]

Nav 1.7 = target: T1, Nav 1.7 (Homo sapiens, UniProt Q15858); conditions: Nav 1.7-transfected CHO cells; cited from earlier work
T1 construct: host or cells: CHO cells (transfected)
T1 sequence (Q15858 whole entry): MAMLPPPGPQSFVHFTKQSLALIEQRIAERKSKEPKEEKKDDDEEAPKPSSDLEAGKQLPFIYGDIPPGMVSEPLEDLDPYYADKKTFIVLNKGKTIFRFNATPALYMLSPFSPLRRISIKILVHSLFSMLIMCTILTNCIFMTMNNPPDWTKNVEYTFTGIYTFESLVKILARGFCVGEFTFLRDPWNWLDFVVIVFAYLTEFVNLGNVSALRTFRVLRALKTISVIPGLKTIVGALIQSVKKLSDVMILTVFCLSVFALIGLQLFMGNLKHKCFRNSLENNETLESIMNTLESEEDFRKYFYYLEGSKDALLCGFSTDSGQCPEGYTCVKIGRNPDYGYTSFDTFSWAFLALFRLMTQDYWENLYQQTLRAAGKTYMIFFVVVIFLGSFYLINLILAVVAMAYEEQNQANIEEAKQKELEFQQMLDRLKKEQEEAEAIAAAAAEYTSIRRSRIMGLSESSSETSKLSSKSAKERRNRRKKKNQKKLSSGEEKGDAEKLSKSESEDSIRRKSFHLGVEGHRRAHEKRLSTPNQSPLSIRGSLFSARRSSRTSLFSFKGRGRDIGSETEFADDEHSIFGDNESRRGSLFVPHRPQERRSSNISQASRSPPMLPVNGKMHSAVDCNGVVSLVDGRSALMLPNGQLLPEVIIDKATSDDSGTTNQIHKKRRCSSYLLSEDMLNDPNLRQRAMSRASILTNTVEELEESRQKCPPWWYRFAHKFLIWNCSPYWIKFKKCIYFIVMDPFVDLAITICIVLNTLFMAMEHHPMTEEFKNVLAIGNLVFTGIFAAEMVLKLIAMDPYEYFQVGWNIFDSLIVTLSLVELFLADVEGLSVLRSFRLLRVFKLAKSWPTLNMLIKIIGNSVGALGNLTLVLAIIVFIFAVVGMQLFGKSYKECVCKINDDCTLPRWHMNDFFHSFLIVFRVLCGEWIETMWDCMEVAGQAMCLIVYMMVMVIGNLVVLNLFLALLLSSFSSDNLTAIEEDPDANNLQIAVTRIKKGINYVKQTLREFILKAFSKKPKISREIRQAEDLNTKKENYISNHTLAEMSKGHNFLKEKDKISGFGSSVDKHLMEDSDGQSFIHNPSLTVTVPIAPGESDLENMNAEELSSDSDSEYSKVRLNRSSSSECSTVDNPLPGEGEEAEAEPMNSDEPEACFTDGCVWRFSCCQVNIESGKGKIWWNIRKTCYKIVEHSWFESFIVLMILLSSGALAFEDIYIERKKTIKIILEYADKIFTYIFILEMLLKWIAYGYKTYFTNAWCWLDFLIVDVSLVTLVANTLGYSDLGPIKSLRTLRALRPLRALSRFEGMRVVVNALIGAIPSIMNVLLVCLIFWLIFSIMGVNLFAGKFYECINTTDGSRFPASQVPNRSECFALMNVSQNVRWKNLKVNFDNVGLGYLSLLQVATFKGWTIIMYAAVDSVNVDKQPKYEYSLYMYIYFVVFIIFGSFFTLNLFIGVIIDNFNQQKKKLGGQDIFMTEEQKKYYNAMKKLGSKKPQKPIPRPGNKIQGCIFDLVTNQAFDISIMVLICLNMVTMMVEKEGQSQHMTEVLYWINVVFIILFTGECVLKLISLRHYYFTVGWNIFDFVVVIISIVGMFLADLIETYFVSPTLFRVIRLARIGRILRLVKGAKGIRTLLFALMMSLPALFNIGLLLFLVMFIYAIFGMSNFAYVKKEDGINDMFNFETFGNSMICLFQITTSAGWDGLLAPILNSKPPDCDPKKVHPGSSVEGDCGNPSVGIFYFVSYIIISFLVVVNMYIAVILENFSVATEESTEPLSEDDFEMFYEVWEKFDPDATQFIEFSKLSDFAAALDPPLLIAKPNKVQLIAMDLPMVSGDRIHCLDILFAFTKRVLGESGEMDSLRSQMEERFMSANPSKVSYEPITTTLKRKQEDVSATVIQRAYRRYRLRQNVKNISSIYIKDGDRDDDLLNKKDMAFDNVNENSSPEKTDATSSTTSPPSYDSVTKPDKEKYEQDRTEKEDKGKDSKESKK

red garra (Garra rufa) = conditions: G. rufa, cited from earlier work
GABAA current = conditions: rat trigeminal ganglia; cited from earlier work
[2] = test system: epileptiform field potentials and spreading depression; conditions: rat neocortical and hippocampal slices; cited from earlier work
zebrafish (Danio rerio) = conditions: 60 μL/L eugenol, D. rerio; cited from earlier work
GABAA receptors = conditions: receptors expressed in Xenopus oocytes; cited from earlier work
[3] = test system: Apteronotus leptorhynchus; test: Neuro-behavioral assay: EOD amplitude; type: in vivo
Experimental: Differential recording of the fish's EOD was performed through a pair of stainless-steel electrodes built into the shelter tube (FIG. 1). During the experiment, the open ends of the tube were closed with a course plastic mesh netting to ensure that the fish remained close to the recording electrodes, thereby yielding high-quality recordings. This restraint is minimally invasive, as, particularly during daytime, the fish remain in shelter tubes with open ends for prolonged periods of time, often for several hours. The recorded EOD signal was amplified and digitized following a protocol established previously. To examine the effect of eugenol on EOD frequency and chirping behavior, the following experiments were conducted using 8 fish (FIG. 11): First, the baseline EOD was recorded in the fish's home tank (50 cm×30 cm×30 cm) for 30 min. Then, for the 5-min treatment session, the shelter tube with the fish was transferred to a smaller (experimental) tank (30 cm×20 cm×20 cm) containing either eugenol dissolved in aquarium water at a certain concentration (30 μL/L, 45 μL/L, or 60 μL/L; ‘test condition’) or aquarium water only (‘control condition’). The temperature in the experimental tank was similar to the temperature in the home tank (median difference: ±0.2° C.). Finally, the shelter tube with the fish was returned to the home tank, where recording continued for 180 min. Throughout the 215 min of pre-treatment, treatment, and post-treatment, the recording of the EOD was interrupted only for a few seconds during which the fish was transferred between its home tank and the experimental tank. The order of the four treatment conditions was determined using a randomized complete block design. Each test or control experiment in a given fish was conducted on a different day.

[4] = PubChem; cited from earlier work

For `CCOC(=O)c1cccc(N)c1` [MS-222, 3-aminobenzoic acid ethyl ester methanesulfonate], the “EOD frequency lower than median baseline frequency immediately after return to isolation tank (range among fish)” value [1] was 129-279 Hz, the “EOD frequency lower than median baseline frequency immediately after return to isolation tank (median)” value [1] was 168 Hz and the “Recovery model parameter a (ratio EOD frequency vs baseline at t=0), estimate” value ([1]; 8 fish) was 0.3584 1. For the same compound, the “Recovery model parameter b, estimate” value ([1]; 8 fish) was 0.52 min, the “Recovery model parameter c, estimate” value ([1]; 8 fish) was 1.0024 and the “Recovery model parameter d, estimate” value ([1]; 8 fish) was -9.0311e-06 min⁻¹.

For `C=CCc1ccc(O)c(OC)c1` [eugenol], the “Binding to voltage-gated sodium channels” value (Nav 1.7) is given as “preferentially binds to such channels in the inactivated state”, the “Time to total loss of equilibrium and movement and absence of reaction to external stimuli” value (red garra (Garra rufa); 25 μL/L eugenol) is given as “approximately 3 min” and the “Time to total loss of equilibrium and movement and absence of reaction to external stimuli” value (red garra (Garra rufa); 50 μL/L eugenol) is given as ~1.5 min. The “Effect on GABA-induced current” value (GABAA current) was “inhibits GABAA current in a reversible, dose-dependent manner”, the “Effect on epileptiform field potentials and spreading depression” value [2] was “reversible and dose-dependent suppression” and the “Time to a similar stage of anesthesia” value (zebrafish (Danio rerio)) was ≤ 1.5 min. For the same compound, the “Effect on GABAA-receptor response” value (GABAA receptors) was “potentiate GABAA-receptor response”, the “Fish in which the EOD amplitude collapsed to markedly lower levels” value ([3]; 60 μL/L eugenol, 5 min) was 4 out of 8 and the “Time after end of exposure at which EOD amplitude reached baseline levels” value ([3]; eugenol, FIG. 19 recording) was “approximately 6 min”. The “Time after onset of anesthesia at which the fish's movements ceased (jittering of EOD amplitude minimal)” value ([3]; eugenol, FIG. 19 recording) was “Approximately 1.5 min”, the “Maximum EOD frequency drop vs median baseline frequency (median)” value ([1]; 60 μL/L eugenol, 5 min, 8 fish) was 232 Hz and the “Maximum EOD frequency drop vs median baseline frequency (range)” value ([1]; 60 μL/L eugenol, 5 min, 8 fish) was 184-277 Hz. The “Latency until fish started to lower the EOD frequency after transfer into the anesthetic solution” value ([1]; eugenol 30-60 μL/L) was 1 to 2 min, the “Recovery model (Eq. 3) parameter b” value ([1]; eugenol 30 μL/L) was 1.4568 min and the “Recovery model (Eq. 3) parameter c” value ([1]; eugenol 30 μL/L) was 1.0089. For the same compound, the “Recovery model (Eq. 3) parameter d” value ([1]; eugenol 30 μL/L) was -3.2299e-05 min⁻¹, the “Difference in the largest normalized EOD frequency drops: Median” value ([1]; eugenol 30 μL/L vs. Control) was −0.1650 and the “Median EOD frequency change, 30-min interval before vs 15-min interval after start of anesthesia: Median” value ([1]; eugenol 30 μL/L, 5 min) was −48.18 Hz. For the same compound, the “Recovery model (Eq. 3) parameter a” value ([1]; eugenol 30 μL/L) was 0.7465 1, the “Recovery model (Eq. 3) parameter b” value ([1]; eugenol 45 μL/L) was 1.4064 min and the “Recovery model (Eq. 3) parameter c” value ([1]; eugenol 45 μL/L) was 1.0084. The “Recovery model (Eq. 3) parameter d” value ([1]; eugenol 45 μL/L) was -3.3821e-05 min⁻¹, the “Difference in the largest normalized EOD frequency drops: Median” value ([1]; eugenol 45 μL/L vs. 30 μL/L) was −0.0715 and the “Median EOD frequency change, 30-min interval before vs 15-min interval after start of anesthesia: Median” value ([1]; eugenol 45 μL/L, 5 min) was −65.54 Hz. The “Recovery model (Eq. 3) parameter a” value ([1]; eugenol 45 μL/L) was 0.6344 1, the “Recovery model (Eq. 3) parameter b” value ([1]; eugenol 60 μL/L) was 1.5816 min and the “Recovery model (Eq. 3) parameter c” value ([1]; eugenol 60 μL/L) was 1.0131. For the same compound, the “Recovery model (Eq. 3) parameter d” value ([1]; eugenol 60 μL/L) was -6.2321e-05 min⁻¹, the “Difference in the largest normalized EOD frequency drops: Median” value ([1]; eugenol 60 μL/L vs. 45 μL/L) was −0.0349 and the “Median EOD frequency change, 30-min interval before vs 15-min interval after start of anesthesia: Median” value ([1]; eugenol 60 μL/L, 5 min) was −88.65 Hz. For the same compound, the “Recovery model (Eq. 3) parameter a” value ([1]; eugenol 60 μL/L) was 0.5649 1 and the “octanol-water partition coefficient log kow” value [4] was 2.49.

For `CCOC(N)=O` [urethane], the “EOD frequency lower than median baseline frequency immediately after return to isolation tank (range among fish)” value [1] was 104-142 Hz, the “EOD frequency lower than median baseline frequency immediately after return to isolation tank (median)” value [1] was 133 Hz and the “EOD frequency drop during first phase of anesthesia” value ([1]; 2.5% urethane, first phase lasting roughly 30 s) was “approximately 100 Hz”. For the same compound, the “Recovery model parameter a (ratio EOD frequency vs baseline at t=0), estimate” value ([1]; 8 fish) was 0.8428 1, the “Recovery model parameter b, estimate” value ([1]; 8 fish) was 21.333 min and the “Recovery model parameter c, estimate” value ([1]; 8 fish) was 1.0228. For the same compound, the “Recovery model parameter d, estimate” value ([1]; 8 fish) was -2.8717e-05 min⁻¹ and the “octanol-water partition coefficient log kow” value [4] was −0.15.
